Measured values reported in US20050026836A1, “Composition for the treatment of damaged tissue” (priority 1999, published 2005).
Several values for one entry are separate records, joined by “and”; a condition that tells them apart may be missing. Equal values may be shown once. Read-outs that look alike come from different tables or passages of the source.

What was measured:
[1] = target: T1, catalytic domain of human MMP-9 (Homo sapiens, UniProt P14780); experiment: MMP-9 fluorogenic inhibition assay; format: biochemical; conditions: read-out: Calculated Ki(nM) MMP-9
T1 sequence (P14780 with tags, fused parts or gaps DEL216-390 limits assumed): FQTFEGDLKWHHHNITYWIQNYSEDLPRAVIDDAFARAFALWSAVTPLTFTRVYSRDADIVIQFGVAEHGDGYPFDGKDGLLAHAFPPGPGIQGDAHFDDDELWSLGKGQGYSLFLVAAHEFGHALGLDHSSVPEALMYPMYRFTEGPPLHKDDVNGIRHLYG
Experimental: (§1) All enzymes were pre-activated at 37° C. with aminophenylmercuric acetate (APMA) or trypsin before being made up to the final concentrations used in the assay. MMP-1 (30 nM) was activated with 0.93 mM APMA for 20 minutes, MMP-2 (30 nM) was activated with 1.32 mM APMA for 1 hour, MMP-3 (1010 nM) was activated with 1.81 mM APMA for 3 hours or heat activated at 55° C. for three hours, MMP-9 (100 nM) was activated with 2 mM APMA for 2 hours, human MMP-13 (100 nM) was activated with 2 mM APMA for 2 hours, and MMP-14 (900 nM) was activated with 0.9 ng/ml trypsin for 25 minutes, followed by the addition of 4.5 ng/ml trypsin inhibitor.
(§2) For MMP-1, the assay buffer used was 50 mM Tris, 200 mM NaCl, 5 mM CaCl2, 20 μM ZnCl2, 0.05% (w/v) Brij 35, pH 7.5. […] For MMP-13, the assay buffer used was 50 mM Tris, pH 7.5, 200 mM NaCl, 5 mM CaCl2, […] and 0.02% (w/v) Brij 35. For MMP-14, the assay buffer used was 50 mM Tris, 100 mM NaCl, 10 mM CaCl2, 0.25% (w/v) Brij 35, pH 7.5.
MMP-2, MMP-3 and MMP-9 inhibition was assayed by incubating activated catalytic domain of human MMP-2, MMP-3 and MMP-9 at 1 nM in assay buffer with 5 μM substrate Mca-Arg-Pro-Lys-Pro-Tyr-Ala-Nva-Trp-Met-Lys(Dnp)-NH2, and six different concentrations of inhibitor. The incubation was performed at 37° C. for 60 minutes.
(§3) The final assay concentrations of inhibitors used in the MMP-1 assays to determine Ki were 50, 40, 30, 20, 10 and 5 μM. For MMP-2, the final assay concentrations of inhibitors used were 1000, 800, 600, 400, 200 and 100 nM. For MMP-3, the final assay concentrations of inhibitors used were 5, 4, 3, 2, 1 and 0.5 nM. For MMP-9 and MMP-14, the final assay concentrations of inhibitors used were 5, 4, 3, 2, 1 and 0.5 μM.
(§4) All assays were carried out in a black 96-well plate with a final volume of 100 μl in each well. […] For MMP-2, MMP-3, MMP-9 and MMP-14, fluorescence was read every 2 minutes at […] and 393 nm γem for 1 hour using a Fluorostar fluorimeter (BMG) with BIOLISE software. For MMP-1 assays, the filters used were 355 nm γex and 440 nm γem; fluorescence was read every 2 minutes for 1 hour. […]

[2] = target: T2, catalytic domain human MMP-14 (Homo sapiens, UniProt P50281); experiment: MMP-14 fluorogenic inhibition assay; format: biochemical; conditions: read-out: Calculated Ki(nM) MMP-14
T2 construct: made in house
Experimental: as §1, §2
MMP-14 inhibition was assayed by incubating activated catalytic domain human MMP-14 at 1 nM in assay buffer with 10 μM Mca-Pro-Leu-Gly-Leu-Dpa-Ala-Arg-NH2 and six concentrations of inhibitor. The incubation was performed at 37° C. for 60 minutes.
as §3
as §4, with “well. Inhibitors were dissolved in dimethylsulphoxide (DMSO) to 1 mM.” for “well.”

[3] = system: circular full thickness lesions; experiment: Normal wound healing in pigs, full thickness lesions; format: in vivo; conditions: 0.3% w/v formulation in CMC hydrogel, 1 ml topically daily, pig
Experimental: The experiment was performed in 3 female SPF pigs (crossbreed of Danish country, Duroc and Yorkshire). At start of the acclimatisation period the body weight of the animals was about 30 kg. The lesions were established on day 1. The animals were anaesthetised with Stresnil® Vet. Janssen, Belgium (40 mg azaperone/ml, 1 ml/10 kg), and Atropin DAK, Denmark (1 mg atropine/ml, 0.05 ml/kg), given as a single intramuscular injection followed by i.v. injection of Hypnodil® Janssen, Belgium (50 mg metomidate/ml, 1-2 ml). Eight circular full thickness lesions (diameter 20 mm) were made on the prepared area, four on each side of the spine. The lesions were numbered 1 (most cranial) to 4 (most caudal) on the left side of the animal, and 5 (most cranial) to 8 (most caudal) on the right side of the animal. After surgery and daily thereafter, the test articles were applied as follows: The dosing volume of each dosing was 1 ml. The dressings were changed on a daily basis. Each lesion was observed daily. The outlines of the wound edge and the epithelial edge will be drawn on sterile transparent sheets, and the areas contained inside the edges were measured planimetrically. The measurement of areas was performed by Scan Beam […] processed to give group mean values and standard deviations where appropriate. Possible outliers were identified, too. Each variable was tested for normality by the Shapiro-Wilk method. In case of normal distribution, two-way analysis of variance was carried out for the variable with the factor: animal and treatment, and if significant difference were detected, possible intergroup differences were assessed using the least-squares means. Otherwise the possible intergroup differences were identified with Wilcoxon Rank-Sum test.

uPA [4] = target: T3, uPA (Homo sapiens, UniProt P00749); experiment: biochemical; conditions: for Ki: UPA
Experimental: A pre-incubation of compound with enzyme is carried out for 15 minutes at 37° C., followed by substrate addition and further incubation for 30 minutes at the same temperature. The final assay volume is 200[…]1.
uPA (urokinase type plasminogen activator) inhibition was assayed by incubating human uPA at 33 IU/ml in 75 mM Tris, pH 8.1, 50 mM NaCl with 180 μM S2444 (substrate) and various concentrations of inhibitors. For the primary screen results, the incubation was performed at 37° C. for 30 minutes.
These assays were carried out in a 96-well plate. […] The incubation was performed after an initial pre-incubation at 37° C. for 15 mins and absorbance was read at 405 nm at 0 mins and at the end of the incubation on a […]ax microplate reader (Molecular Devices Corporation), using SOFTMaxPRO software.

human tPA = target: T4, human tPA (Homo sapiens, UniProt P00750); experiment: tPA chromogenic inhibition assay (S2288); format: biochemical; conditions: 100 μM compound
T4 construct: Human tPA (one chain) 10 μg/vial (Chromogenix, 821157-039/0); purchased Chromogenix 821157-039/0
T4 sequence (P00750 36-562): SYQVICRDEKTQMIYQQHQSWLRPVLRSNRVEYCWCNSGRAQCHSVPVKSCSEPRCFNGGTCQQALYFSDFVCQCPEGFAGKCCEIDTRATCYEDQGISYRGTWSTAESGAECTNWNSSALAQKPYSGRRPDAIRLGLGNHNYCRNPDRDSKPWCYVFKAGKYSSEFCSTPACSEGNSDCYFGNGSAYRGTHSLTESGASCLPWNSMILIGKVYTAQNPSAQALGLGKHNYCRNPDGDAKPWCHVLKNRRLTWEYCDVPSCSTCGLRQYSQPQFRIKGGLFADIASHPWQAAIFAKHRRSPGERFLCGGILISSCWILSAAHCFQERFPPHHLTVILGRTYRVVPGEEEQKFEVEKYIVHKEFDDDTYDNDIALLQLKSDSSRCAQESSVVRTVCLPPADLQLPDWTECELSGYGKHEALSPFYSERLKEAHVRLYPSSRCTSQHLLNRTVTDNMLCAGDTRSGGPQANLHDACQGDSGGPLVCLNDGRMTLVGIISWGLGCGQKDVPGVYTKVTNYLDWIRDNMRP
Experimental: The method for analysis of tPA inhibition is similar to that for uPA inhibition. The assay utilises final concentrations of tPA of 0.4 µg/ml with 0.1 mg/ml tPA stimulator, 0.4 mM S2288 (substrate) and various concentrations of inhibitors, made up in uPA assay buffer. Pre-incubation is carried out with compound, enzyme and enzyme stimulator, as for uPA, prior to the incubation with substrate. Incubation time is 60 minutes at performed at 37° C. Data analysis is identical to that described above for uPA, using a known Km for tPA of 250 μM.
The incubation was performed at 37° C. for 60 mins. Percentage inhibition was calculated.

Plasmin = target: T5, Plasmin (Homo sapiens, UniProt P00747); experiment: Plasmin chromogenic inhibition assay (Chromozym-PL); format: biochemical; conditions: 100 μM compound
T5 construct: Human plasmin, 2 mg/vial (Quadratech, 810665) was reconstituted to 1 mg/ml in buffer; purchased Quadratech 810665
T5 sequence (P00747 581-810 limits assumed): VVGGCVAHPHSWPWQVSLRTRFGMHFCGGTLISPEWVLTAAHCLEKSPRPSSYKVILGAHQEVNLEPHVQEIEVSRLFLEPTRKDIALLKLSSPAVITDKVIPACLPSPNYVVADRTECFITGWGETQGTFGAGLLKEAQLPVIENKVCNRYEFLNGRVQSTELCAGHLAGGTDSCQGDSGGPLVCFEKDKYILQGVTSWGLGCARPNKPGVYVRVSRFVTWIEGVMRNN
T5 sequence (P00747 97-580 partner limits assumed): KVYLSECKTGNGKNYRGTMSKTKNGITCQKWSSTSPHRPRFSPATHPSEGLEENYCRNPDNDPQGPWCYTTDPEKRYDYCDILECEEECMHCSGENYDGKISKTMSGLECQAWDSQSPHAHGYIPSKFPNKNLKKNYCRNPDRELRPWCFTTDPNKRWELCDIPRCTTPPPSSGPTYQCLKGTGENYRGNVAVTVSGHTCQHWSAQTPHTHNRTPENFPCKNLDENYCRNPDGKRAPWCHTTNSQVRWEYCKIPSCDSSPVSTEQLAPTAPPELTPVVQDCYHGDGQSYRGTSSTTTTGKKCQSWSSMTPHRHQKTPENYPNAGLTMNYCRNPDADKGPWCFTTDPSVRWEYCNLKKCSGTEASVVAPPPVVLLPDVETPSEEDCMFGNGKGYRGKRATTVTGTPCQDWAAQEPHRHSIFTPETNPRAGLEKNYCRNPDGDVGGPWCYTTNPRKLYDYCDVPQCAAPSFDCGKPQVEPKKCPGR
Experimental: Plasmin inhibition is assayed by incubating human plasmin at 0.7 μg/ml with 0.2 mM Chromozym-PL (substrate) and various concentrations of inhibitors in uPA assay buffer. Pre-incubation is carried out as for uPA and the incubation is performed at 37° C. for 30 mins.
The incubation was performed at 37° C. for 30 mins. Percentage inhibition was calculated.

uPA [5] = target: T3, uPA; experiment: biochemical; conditions: read-out: Percentage inhibition of proteolysis
Experimental: (§5) The extent of proteolysis of the growth factors was assayed by incubating TGF-β2, VEGF, PDGF-BB and KGF-2 with the proteases uPA, plasmin, MMP-3 and MMP-13 in assay buffer (either uPA/plasmin buffer, 50 mM tris-HCl, pH 7.4 or MMP assay buffer, 100 mM Tris, 10 mM NaCl, 10 mM CaCl2, 0.05% (w/v) Brij 35, pH 7.5). […] The growth factors were added to the incubation mixture at a final concentration of […], unless otherwise stated.
(§6) The effects of uPA were determined by incubation at a typical final concentration of 25 μg/ml (1500 U/ml) with each growth factor. The effects of plasmin were determined at a typical final concentration of 0.1 mg/ml by incubation with the individual growth factors in assay buffer. MMP-3 and -13 were incubated at a typical final concentration of 10 nM with the growth factors in assay buffer. Dual protease assays carried out with uPA and MMP-3 together were performed in 100 mM Tris, […], 10 mM CaCl2, 0.05% (w/v) Brij 35, pH 7.5. All incubations were performed in siliconised tubes (Sigma Aldrich, UK).
(§7) The inhibitors used in these experiments were compound 9454, compound 9470 and compound 5214. These were dissolved in DMSO at a concentration of 10 mM. Typical final concentrations for these inhibitors were in the range of 100 μM to 10 nM. Aprotinin was dissolved in the Tris buffer at 10 mg/ml and used at a typical concentration of 10 μg/ml.
All assays were carried out at 37° C. and enzymes were pre-incubated for 15 minutes with or without inhibitor as appropriate, prior to addition of growth factors. After the addition of growth factor, the incubation mixtures were divided into aliquots in siliconised tubes for each time point used. Incubations were carried out over a time course typically of 24 hours, unless otherwise stated. They were stopped by the addition of an equal volume of 2×Novex reducing loading buffer (final concentration 1.09 M glycerol, 141 mM Tris-base, 106 mM Tris-HCl, 73 mM lithium dodecyl sulphate (LDS), 0.5 mM ethylenediaminetetraacetic acid, 0.22 mM Serva Blue G250, 0.175 mM Phenol Red, pH 8.5) and samples prepared for electrophoresis by incubating at 70° C. for 10 minutes.
LDS-PAGE was performed using the NOVEX Xcell II Mini-Cell gel apparatus (Groningen, Holland) using a variation on the method of Laemmli (1970). Equal volumes of samples were loaded onto NuPage 4-12% Bis-tris gels with molecular weight markers (SeeBlue Plus2 Pre-stained Standards). Molecular weight determination was performed by comparison of bands with markers of molecular weight 3, 6, 14, 17, 28, 38, 49, 62, 98 and 188 kDa. […]

uPA and MMP-3 = experiment: Inhibition of uPA and MMP-3-mediated KGF-2 degradation (dual protease assay); format: biochemical, human; conditions: uPA and MMP-3 together / KGF-2; inhibitors used (100 μM), alone or in combination
Experimental: as §5, §6
as §7, with “μg/ml. […]” for “μg/ml.”

[6] = individual determinations, 100 µM
[7] = individual determinations, read-out: % inhibition at 100 μM
[8] = mean ± sem, read-out: % inhibition at 100 μM Mean ± sem

SMILES | Ki [1] | Ki [2] | Non-epithelialised area MEAN ([3]; DAY 8) | Non-epithelialised area MEAN ([3]; DAY 9) | Non-epithelialised area MEAN ([3]; DAY 10) | Non-epithelialised area MEAN ([3]; DAY 11) | Ki (uPA [4]; Calculated Ki (nM) Mean ± sem, mean ± sem) | Ki (uPA [4]; Calculated Ki (nM), individual determinations) | Potency as inhibitor of uPA (in words) (uPA [4]; from Table 1) | % inhibition at 100 μM (human tPA; [6]) | inhibition at 100 µM (human tPA; [7]) | inhibition at 100 µM (human tPA; [8]) | % inhibition at 100 μM (Plasmin; [6]) | inhibition at 100 µM (Plasmin; [7]) | inhibition at 100 µM (Plasmin; [8]) | inhibition at 0.1 µM (uPA [5]) | inhibition at 1 µM (uPA [5]) | inhibition at 10 µM (uPA [5]) | inhibition at 100 µM (uPA [5]) | Percentage inhibition of proteolysis (uPA and MMP-3)
CNC(=O)[C@@H](Cc1ccccc1)NC(=O)C(CC(C)C)[C@H](CSc1cccs1)C(=O)NO (some centres unmarked) [compound 5719] | 0.47 nM | 3.68 nM | 294.0 | 248.0 | 210.1 | 148.9 | – | – | – | – | – | – | – | – | – | – | – | – | – | –
NC(N)=Nc1ncc(Cl)c2ccc(S(=O)(=O)N3CCCC3C(=O)O)cc12 (centres unmarked) [compound 5214] | – | – | – | – | – | – | 9.9 ± 0.76 nM | 11 nM and 9.6 nM and 7.8 nM | potent inhibitor of uPA | 47% and 50% | 38% | 45 ± 3.61% | 33% and 28% and 27% | 31% | 29.8 ± 1.38% | 17% | 76% | 83% | 91% | 38.6
